In assay [1] the test system is bacterial strains that express the class D cephalosporinase OXA-15. The assay is described as follows: Standard BLI potentiation MIC / synergy MIC (sMIC) assays run in the presence of a β-lactam, OXA-15 expressing strains. Conditions: BLI in combination with a β-lactam; comparison with Avibactam (comparator compound CCC). It counts as cell-based, E. coli. The text has this: (§1) Unless otherwise indicated, the activity of the BLI compounds can be described by the MIC value obtained from a Synergy MIC assay or a BLI potentiation assay (e.g as described herein), both of which are run in the presence of a β-lactam.
(§2) A set of β-lactamase expressing isogenic E. coli strains was constructed by cloning a β-lactamase gene into a customized derivative of pBR322 (GenBank Accession Number J01749) and transforming the engineered plasmids into E. coli. The NdeI restriction site within the plasmid backbone of pBR322 was removed to generate pBR322 ΔNdeI. The pBR322 ΔNdeI vector itself, minus the blaTEM-1 gene, was amplified using two primers: (1) pBR-Pbla 5′-cgcatatgactettectttttcaatattattg-3, SEQ ID 1, a primer with an engineered NdeI restriction site at the 3′ end of the blaTEM-1 promoter and (2) pBR-vec-1 5′-[…]-3′, SEQ ID 2, a primer with an engineered BamHI restriction site at the 3′ end of the blaTEM-1 open reading frame. The chloramphenicol resistance gene, cat, was generated by PCR amplification from pKD3 (GenBank Accession Number AY048742) using primers with an engineered NdeI restriction site at the 5′ end (Pbla-cat 5′-[…]-3′, SEQ ID 3) and an engineered BamHI restriction site at the 3′ end (Vec-1-cat 5′-[…]-3′, SEQ ID 4) of the resistance gene. The two PCR products, pBR322 ΔNdeI and cat were ligated together generating pBR-CBST (pBR322 ΔNdeI ΔTEM-1::cat Seq. ID 5) which retains both the pBR322 tetracycline resistance cassette, tetA, and the plasmid origin of replication but the blaTEM-1 gene was replaced by the cat gene.
(§3) Using this engineering strategy a number of plasmids producing β-lactamase genes from different classes (see below) were generated using synthetic genes with an engineered NdeI restriction site at the 5′ end and BamHI restriction site at the 3′ end of each gene (GenScript). Both the synthetic β-lactamase genes and cat gene were ligated into the NdeI/BamHI sites of the pBR322 ΔNdeI PCR product and transformed into electrocompetent E. coli ElectroMax DH10B (Invitrogen/Life Technologies). E. coli DH10B harboring the recombinant plasmids were selected on LB agar (supplemented with 25 μg/mL tetracycline) and single isolated colonies were then inoculated into 5 mL LB media (supplemented with 25 μg/mL tetracycline), and incubated at 37° C. with aeration (250 rpm) for 18 hrs. The cultures were frozen back at −80° C. in 20% glycerol. The DNA sequence of the cloned β-lactamase genes was confirmed. The β-lactamase gene expression in the recombinant E. coli strains was driven by the blaTEM-1 promoter in the pBR-CBST plasmid and was characterized by MIC profiling of the E. coli recombinant strains against comparator β-lactam/BLI combinations in broth microdilution assay.
(§4) The experimental protocol was performed according to Clinical and Laboratory Standards Institute (CLSI) guidelines with modifications as described below (CLSI guidelines can be derived from the CLSI document M07-A9 published in January 2012: “Methods for Dilution Antimicrobial Susceptibility Tests for Bacteria That Grow Aerobically; Approved Standard-Ninth Edition”).
(§5) To prepare for MIC testing, frozen glycerol stocks of clinical isolates (Klebsiella pneumoniae, Eschericia coli, Enterobacter spp, Citrobacter spp, or Pseudomonas aeruginosa) were used to streak for isolated colonies on rich, non-selective, tryptic soy agar containing 5% sheep's blood (TSAB). Frozen glycerol stocks of laboratory engineered, isogenic E. coli strains, which contain cloned β-lactamase expressing plasmids were used to streak for isolated colonies on rich, selective LB agar supplemented with 25 μg/mL tetracycline to maintain the plasmid. All strains were incubated at 37° C. for 18-24 hrs.
(§6) On the day of testing, primary cultures were started by scraping off 5-10 colonies from the TSAB plates containing clinical strains or the tetracycline supplemented LB plates containing engineered strains. […]

For assay [2], the system named is bacterial strains that express KPC β-lactamases. Description: Standard BLI potentiation MIC / synergy MIC (sMIC) assays run in the presence of a β-lactam, KPC expressing strains. It counts as cell-based. Conditions: more active for at least one KPC strain and/or better spectrum of activity than Avibactam; BLI in combination with a β-lactam.
Excerpt: as §1, §2, §3, §4, §5, §6

Structures can show the parent of a compound that is named as a salt.

Regarding `O=C1N2C[C@@H](CC[C@H]2c2nnco2)N1OS(=O)(=O)O` [Compound 701, (2S,5R)-2-(1,3,4-oxadiazol-2-yl)-7-oxo-1,6-diazabicyclo[3.2.1]octan-6-yl hydrogen sulfate], the “activity against bacterial strains that express the class D cephalosporinase OXA-15, compared with Avibactam” value in assay [1] is listed as “more active than Avibactam”. Further, the “activity and/or spectrum of activity against bacterial strains that express KPC β-lactamases, compared with Avibactam” value in assay [2] is on record as “more active than Avibactam”.
Take `NCc1nnc([C@@H]2CC[C@@H]3CN2C(=O)N3OS(=O)(=O)O)o1` [Compound 702, (2S,5R)-2-(5-(aminomethyl)-1,3,4-oxadiazol-2-yl)-7-oxo-1,6-diazabicyclo[3.2.1]octan-6-yl hydrogen sulfate]: the “activity against bacterial strains that express the class D cephalosporinase OXA-15, compared with Avibactam” value in assay [1] was “more active than Avibactam”. In assay [2], the “activity and/or spectrum of activity against bacterial strains that express KPC β-lactamases, compared with Avibactam” value was “more active than Avibactam”.
For `NCCc1nnc([C@@H]2CC[C@@H]3CN2C(=O)N3OS(=O)(=O)O)o1` [Compound 703, (2S,5R)-2-(5-(2-aminoethyl)-1,3,4-oxadiazol-2-yl)-7-oxo-1,6-diazabicyclo[3.2.1]octan-6-yl hydrogen sulfate], the “activity against bacterial strains that express the class D cephalosporinase OXA-15, compared with Avibactam” value in assay [1] was “more active than Avibactam”. Moreover, in assay [2], the “activity and/or spectrum of activity against bacterial strains that express KPC β-lactamases, compared with Avibactam” value was “more active than Avibactam”.
As to `N=C(N)NCCc1nnc([C@@H]2CC[C@@H]3CN2C(=O)N3OS(=O)(=O)O)o1` [Compound 705, (2S,5R)-2-(5-(2-guanidinoethyl)-1,3,4-oxadiazol-2-yl)-7-oxo-1,6-diazabicyclo[3.2.1]octan-6-yl hydrogen sulfate], the “activity against bacterial strains that express the class D cephalosporinase OXA-15, compared with Avibactam” value in assay [1] is “more active than Avibactam”. In addition, the “activity and/or spectrum of activity against bacterial strains that express KPC β-lactamases, compared with Avibactam” value in assay [2] is “more active than Avibactam”.
For `NC(=O)c1nnc([C@@H]2CC[C@@H]3CN2C(=O)N3OS(=O)(=O)O)o1` [Compound 706, (2S,5R)-2-(5-carbamoyl-1,3,4-oxadiazol-2-yl)-7-oxo-1,6-diaza-bicyclo[3.2.1]octan-6-yl hydrogen sulfate], in assay [1], the “activity against bacterial strains that express the class D cephalosporinase OXA-15, compared with Avibactam” value was “more active than Avibactam”. In addition, the “activity and/or spectrum of activity against bacterial strains that express KPC β-lactamases, compared with Avibactam” value in assay [2] was “more active than Avibactam”.
Take `O=C1N2C[C@@H](CC[C@H]2c2nnc(C3CNC3)o2)N1OS(=O)(=O)O` [Compound 708, (2S,5R)-2-(5-(azetidin-3-yl)-1,3,4-oxadiazol-2-yl)-7-oxo-1,6-diazabicyclo[3.2.1]octan-6-yl hydrogen sulfate]: the “activity against bacterial strains that express the class D cephalosporinase OXA-15, compared with Avibactam” value in assay [1] is given as “more active than Avibactam”. Also, the “activity and/or spectrum of activity against bacterial strains that express KPC β-lactamases, compared with Avibactam” value in assay [2] was “more active than Avibactam”.
On to `N=C(N)N1CC(c2nnc([C@@H]3CC[C@@H]4CN3C(=O)N4OS(=O)(=O)O)o2)C1` [Compound 709, (2S,5R)-2-(5-(1-carbamimidoylazetidin-3-yl)-1,3,4-oxadiazol-2-yl)-7-oxo-1,6-diazabicyclo[3.2.1]octan-6-yl hydrogen sulfate], for which the “activity against bacterial strains that express the class D cephalosporinase OXA-15, compared with Avibactam” value in assay [1] is “more active than Avibactam”. Besides, in assay [2], the “activity and/or spectrum of activity against bacterial strains that express KPC β-lactamases, compared with Avibactam” value is “more active than Avibactam”.
`O=C1N2C[C@@H](CC[C@H]2c2nnc(C3CCNC3)o2)N1OS(=O)(=O)O` (stereo partly drawn) [Compound 710, (2S,5R)-7-oxo-2-(5-(pyrrolidin-3-yl)-1,3,4-oxadiazol-2-yl)-1,6-diazabicyclo[3.2.1]octan-6-yl hydrogen sulfate]: in assay [1], the “activity against bacterial strains that express the class D cephalosporinase OXA-15, compared with Avibactam” value is reported as “more active than Avibactam”. Further, the “activity and/or spectrum of activity against bacterial strains that express KPC β-lactamases, compared with Avibactam” value in assay [2] was “more active than Avibactam”.
On to `O=C1N2C[C@@H](CC[C@H]2c2nnc(C3CCNCC3)o2)N1OS(=O)(=O)O` [Compound 711, (2S,5R)-7-oxo-2-(5-(piperidin-4-yl)-1,3,4-oxadiazol-2-yl)-1,6-diazabicyclo[3.2.1]octan-6-yl hydrogen sulfate], for which, in assay [1], the “activity against bacterial strains that express the class D cephalosporinase OXA-15, compared with Avibactam” value was “more active than Avibactam”. In assay [2], the “activity and/or spectrum of activity against bacterial strains that express KPC β-lactamases, compared with Avibactam” value was “more active than Avibactam”.
In the case of `NCCCc1nnc([C@@H]2CC[C@@H]3CN2C(=O)N3OS(=O)(=O)O)o1` [Compound 720, (2S,5R)-2-(5-(3-aminopropyl)-1,3,4-oxadiazol-2-yl)-7-oxo-1,6-diazabicyclo[3.2.1]octan-6-yl hydrogen sulfate], in assay [1], the “activity against bacterial strains that express the class D cephalosporinase OXA-15, compared with Avibactam” value is reported as “more active than Avibactam”. Also, the “activity and/or spectrum of activity against bacterial strains that express KPC β-lactamases, compared with Avibactam” value in assay [2] is listed as “more active than Avibactam”.
As for `N=C(N)NCc1nnc([C@@H]2CC[C@@H]3CN2C(=O)N3OS(=O)(=O)O)s1` [Compound 721, (2S,5R)-2-(5-(guanidinomethyl)-1,3,4-thiadiazol-2-yl)-7-oxo-1,6-diazabicyclo[3.2.1]octan-6-yl hydrogen sulfate], in assay [1], the “activity against bacterial strains that express the class D cephalosporinase OXA-15, compared with Avibactam” value is reported as “more active than Avibactam”. Besides, the “activity and/or spectrum of activity against bacterial strains that express KPC β-lactamases, compared with Avibactam” value in assay [2] was “more active than Avibactam”.
`CNCCc1nnc([C@@H]2CC[C@@H]3CN2C(=O)N3OS(=O)(=O)O)o1` [Compound 722, (2S,5R)-2-(5-(2-(methylamino)ethyl)-1,3,4-oxadiazol-2-yl)-7-oxo-1,6-diazabicyclo[3.2.1]octan-6-yl hydrogen sulfate]: the “activity against bacterial strains that express the class D cephalosporinase OXA-15, compared with Avibactam” value in assay [1] was “more active than Avibactam”. In addition, the “activity and/or spectrum of activity against bacterial strains that express KPC β-lactamases, compared with Avibactam” value in assay [2] is on record as “more active than Avibactam”.
For the compound `N=C(N)NCC1(c2nnc([C@@H]3CC[C@@H]4CN3C(=O)N4OS(=O)(=O)O)o2)CC1` [Compound 723, (2S,5R)-2-(5-(1-(guanidinomethyl)cyclopropyl)-1,3,4-oxadiazol-2-yl)-7-oxo-1,6-diazabicyclo[3.2.1]octan-6-yl hydrogen sulfate], the “activity against bacterial strains that express the class D cephalosporinase OXA-15, compared with Avibactam” value in assay [1] is on record as “more active than Avibactam”. Also, in assay [2], the “activity and/or spectrum of activity against bacterial strains that express KPC β-lactamases, compared with Avibactam” value was “more active than Avibactam”.
On to `NC1(Cc2nnc([C@@H]3CC[C@@H]4CN3C(=O)N4OS(=O)(=O)O)o2)CC1` [Compound 724, (2S,5R)-2-(5-((1-aminocyclopropyl)methyl)-1,3,4-oxadiazol-2-yl)-7-oxo-1,6-diazabicyclo[3.2.1]octan-6-yl hydrogen sulfate], for which, in assay [1], the “activity against bacterial strains that express the class D cephalosporinase OXA-15, compared with Avibactam” value was “more active than Avibactam”. In addition, the “activity and/or spectrum of activity against bacterial strains that express KPC β-lactamases, compared with Avibactam” value in assay [2] is on record as “more active than Avibactam”.
Turning to `NC1CCN(CCc2nnc([C@@H]3CC[C@@H]4CN3C(=O)N4OS(=O)(=O)O)o2)CC1` [Compound 775, (2S,5R)-2-(5-(2-(4-aminopiperidin-1-yl)ethyl)-1,3,4-oxadiazol-2-yl)-7-oxo-1,6-diazabicyclo[3.2.1]octan-6-yl hydrogen sulfate], in assay [2], the “activity and/or spectrum of activity against bacterial strains that express KPC β-lactamases, compared with Avibactam” value is given as “more active than Avibactam”.
Turning to `O=C1N2C[C@@H](CC[C@H]2c2nnc(N3CCNCC3)s2)N1OS(=O)(=O)O` [Compound 797, (2S,5R)-7-oxo-2-(5-(piperazin-1-yl)-1,3,4-thiadiazol-2-yl)-1,6-diazabicyclo[3.2.1]octan-6-yl hydrogen sulfate], the “activity against bacterial strains that express the class D cephalosporinase OXA-15, compared with Avibactam” value in assay [1] is “more active than Avibactam”.
